Laboratory results reported in publication PMC7407272, “Induction of Lysosome Membrane Permeabilization as a Therapeutic Strategy to Target Pancreatic Cancer Stem Cells” (Cancers, 2020).
pEC50: −log10 of the molar value.

Legend:
PDAC2 cultures = test: Sphere formation assay; assay type: cell-based, human; conditions: 0.1 µg/mL GEM or Cpd 1 at 1.25 or 2.5 µM
From the text: (§1) Pancreatic CSC spheres were generated as previously described in ultra-low attachment plates (Corning) using CSC media: serum-free DMEM/F12 medium (1:1; #21331-020; Gibco, Waltham, MA, USA), supplemented with Pen/Strep (1:100; #1500-063; Gibco, Waltham, MA, USA), Fungizone (1:250; #15290-018; Gibco), L-Glutamine (1:100; #25030-024; Gibco, Waltham, MA, USA), B-27 (1:50; #17504-044; Gibco, Waltham, MA, USA) and basic fibroblast growth factor (FGF-b) (1:5000; Gibco, Waltham, MA, USA). All cell culture was carried out at 37 °C in a 5% CO2 humidified incubator. To quantify spheres of > 40 μm, 1 mL of sample volume was analyzed with a CASY® Cell Counter (Roche Applied Sciences, Mannheim, Germany). The CASY® Cell Counter measuring principle is based on a capillary particle counter with pulse area analysis, that permits the determination of cell count, cell concentration, cell volume (peak), and average cell diameter, specifically diameters of 40–80 μm, 80–120 μm and >120 μm.

PDAC4 cultures = test: Sphere formation assay; assay type: cell-based, human; conditions: 0.1 µg/mL GEM or Cpd 1 at 1.25 or 2.5 µM
From the text: as §1

PDAC4 3D spheres = test: Viability curves on PDAC4 3D spheres; assay type: cell-based, human; conditions: Homo sapiens, 30 h
From the text: The PDAC patient-derived xenograft (PDX) Panc354 (referred to hereafter as PDAC3) was obtained from Dr. Manuel Hidalgo under a Material Transfer Agreement with the Spanish National Cancer Centre (CNIO), Madrid, Spain (Reference no. I409181220BSMH). PDAC1, PDAC2 and PDAC4 PDXs were established from primary patient resected tumors. Samples were provided by the BioBank Hospital Ramón y Cajal-IRYCIS (PT13/0010/0002), integrated in the Spanish National Biobanks Network and they were processed following standard operating procedures with the appropriate approval of the Ethical and Scientific Committees (Control no. No. Control: DE-BIOB-73 AC65, RG.BIOB-96 REV, and CI-BIOB-08-10-01 rev), with informed consent and according to Declaration of Helsinki principles. Primary patient tumors were subcutaneously implanted in immunocompromised female 6- to 8-week-old NU-Foxn1nu nude mice (Envigo, Barcelona, Spain) and subsequently passage in vivo to establish PDX PDAC1, PDAC2 and PDAC4. Primary PDX-derived in vitro cultures were established as previously detailed. […]
Pancreatic CSC spheres were generated as previously described in ultra-low attachment plates (Corning) using CSC media: serum-free DMEM/F12 medium (1:1; #21331-020; Gibco, Waltham, MA, USA), supplemented with Pen/Strep (1:100; #1500-063; Gibco, Waltham, MA, USA), Fungizone (1:250; #15290-018; Gibco), L-Glutamine (1:100; #25030-024; Gibco, Waltham, MA, USA), B-27 (1:50; #17504-044; Gibco, Waltham, MA, USA) and basic fibroblast growth factor (FGF-b) (1:5000; Gibco, Waltham, MA, USA). […] To quantify spheres of > 40 μm, 1 mL of sample volume was analyzed with a CASY® Cell Counter (Roche Applied Sciences, Mannheim, Germany). […]

FLT3 = target: T1, FLT3 (Homo sapiens, UniProt P36888); test: KINOMEscan; assay type: binding; conditions: read-out: % Ctrl
T1 construct: purchased DiscoveRx KINOMEscan

PIK3CA = target: T2, PIK3CA (Homo sapiens, UniProt P42336); test: KINOMEscan; assay type: binding; conditions: read-out: % Ctrl
T2 construct: purchased DiscoveRx KINOMEscan
T2 sequence (P42336 whole entry): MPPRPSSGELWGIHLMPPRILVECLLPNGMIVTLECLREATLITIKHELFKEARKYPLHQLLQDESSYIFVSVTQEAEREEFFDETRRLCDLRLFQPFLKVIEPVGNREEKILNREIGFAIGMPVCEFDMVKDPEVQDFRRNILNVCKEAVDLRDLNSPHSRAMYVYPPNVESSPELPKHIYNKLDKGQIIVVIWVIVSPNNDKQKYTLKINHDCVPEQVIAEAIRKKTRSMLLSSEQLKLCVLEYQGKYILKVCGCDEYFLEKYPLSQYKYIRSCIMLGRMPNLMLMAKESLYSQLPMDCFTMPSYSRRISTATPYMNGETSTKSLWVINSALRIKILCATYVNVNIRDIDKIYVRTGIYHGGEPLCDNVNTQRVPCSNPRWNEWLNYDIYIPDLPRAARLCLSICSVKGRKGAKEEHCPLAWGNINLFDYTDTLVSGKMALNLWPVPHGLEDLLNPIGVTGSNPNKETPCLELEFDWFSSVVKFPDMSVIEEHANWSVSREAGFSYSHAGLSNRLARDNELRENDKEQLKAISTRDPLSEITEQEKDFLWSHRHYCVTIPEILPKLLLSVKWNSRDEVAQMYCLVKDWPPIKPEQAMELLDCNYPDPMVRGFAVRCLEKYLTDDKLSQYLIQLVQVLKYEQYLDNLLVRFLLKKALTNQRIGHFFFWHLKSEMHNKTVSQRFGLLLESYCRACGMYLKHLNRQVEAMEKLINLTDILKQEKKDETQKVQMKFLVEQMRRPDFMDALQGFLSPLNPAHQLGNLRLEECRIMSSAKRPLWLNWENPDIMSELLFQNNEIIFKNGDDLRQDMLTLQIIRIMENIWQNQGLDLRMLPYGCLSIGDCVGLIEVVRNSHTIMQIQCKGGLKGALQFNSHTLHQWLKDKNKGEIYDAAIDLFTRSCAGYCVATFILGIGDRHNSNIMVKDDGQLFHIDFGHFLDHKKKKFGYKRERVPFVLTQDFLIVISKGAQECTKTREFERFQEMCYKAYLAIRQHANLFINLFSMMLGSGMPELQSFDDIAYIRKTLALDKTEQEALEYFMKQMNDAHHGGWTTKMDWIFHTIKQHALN

FLT3(N841I) = target: T3, FLT3(N841I) (Homo sapiens, UniProt P36888, N841I); test: KINOMEscan; assay type: binding; conditions: read-out: % Ctrl
T3 construct: purchased DiscoveRx KINOMEscan

FLT3-autoi. = target: T4, FLT3-autoi. (Homo sapiens, UniProt P36888); test: KINOMEscan; assay type: binding; conditions: read-out: % Ctrl
T4 construct: purchased DiscoveRx KINOMEscan

PIK3CA(M1043I) = target: T5, PIK3CA(M1043I) (Homo sapiens, UniProt P42336, M1043I); test: KINOMEscan; assay type: binding; conditions: read-out: % Ctrl
T5 construct: purchased DiscoveRx KINOMEscan

PIK3CD = target: T6, PIK3CD (Homo sapiens, UniProt O00329); test: KINOMEscan; assay type: binding; conditions: read-out: % Ctrl
T6 construct: purchased DiscoveRx KINOMEscan

PIK4CB = target: T7, PIK4CB (Homo sapiens, UniProt Q9UBF8); test: KINOMEscan; assay type: binding; conditions: read-out: % Ctrl
T7 construct: purchased DiscoveRx KINOMEscan

IGF1R = target: T8, IGF1R (Homo sapiens, UniProt P08069); test: KINOMEscan; assay type: binding; conditions: read-out: % Ctrl
T8 construct: purchased DiscoveRx KINOMEscan
T8 sequence (P08069 31-1367): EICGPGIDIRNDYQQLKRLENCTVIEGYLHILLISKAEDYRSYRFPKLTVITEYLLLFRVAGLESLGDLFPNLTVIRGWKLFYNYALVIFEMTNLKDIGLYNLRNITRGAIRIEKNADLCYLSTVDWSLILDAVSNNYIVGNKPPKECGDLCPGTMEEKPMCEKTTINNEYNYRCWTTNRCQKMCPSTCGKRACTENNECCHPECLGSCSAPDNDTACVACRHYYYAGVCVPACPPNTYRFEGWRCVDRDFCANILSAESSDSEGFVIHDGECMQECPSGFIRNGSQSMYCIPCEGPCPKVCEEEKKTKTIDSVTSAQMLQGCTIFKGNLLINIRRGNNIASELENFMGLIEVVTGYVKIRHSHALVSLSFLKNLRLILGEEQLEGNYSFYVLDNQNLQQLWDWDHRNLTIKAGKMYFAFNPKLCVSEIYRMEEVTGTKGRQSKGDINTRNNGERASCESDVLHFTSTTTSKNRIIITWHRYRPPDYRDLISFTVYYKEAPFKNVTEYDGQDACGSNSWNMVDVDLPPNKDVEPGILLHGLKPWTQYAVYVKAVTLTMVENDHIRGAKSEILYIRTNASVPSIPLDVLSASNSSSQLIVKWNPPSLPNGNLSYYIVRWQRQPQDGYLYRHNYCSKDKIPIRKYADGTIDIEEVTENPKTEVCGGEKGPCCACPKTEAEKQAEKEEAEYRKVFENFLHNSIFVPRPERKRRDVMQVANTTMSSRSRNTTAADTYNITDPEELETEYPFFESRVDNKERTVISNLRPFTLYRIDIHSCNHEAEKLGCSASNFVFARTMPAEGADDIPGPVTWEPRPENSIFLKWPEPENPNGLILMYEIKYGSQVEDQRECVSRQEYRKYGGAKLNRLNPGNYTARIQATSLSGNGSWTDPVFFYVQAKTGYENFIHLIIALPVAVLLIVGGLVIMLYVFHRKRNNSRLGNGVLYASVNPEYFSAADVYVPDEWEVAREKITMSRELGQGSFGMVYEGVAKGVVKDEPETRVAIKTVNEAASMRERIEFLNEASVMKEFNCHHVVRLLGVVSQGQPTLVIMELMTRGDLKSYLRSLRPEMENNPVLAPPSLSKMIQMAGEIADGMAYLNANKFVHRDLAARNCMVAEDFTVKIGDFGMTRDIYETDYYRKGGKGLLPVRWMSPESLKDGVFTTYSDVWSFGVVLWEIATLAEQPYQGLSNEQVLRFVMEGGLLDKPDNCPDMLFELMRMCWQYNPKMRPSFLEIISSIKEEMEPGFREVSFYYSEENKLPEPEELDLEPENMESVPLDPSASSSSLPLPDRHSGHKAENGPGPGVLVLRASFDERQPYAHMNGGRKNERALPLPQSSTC

RIOK3 = target: T9, RIOK3 (Homo sapiens, UniProt O14730); test: KINOMEscan; assay type: binding; conditions: read-out: % Ctrl
T9 construct: purchased DiscoveRx KINOMEscan
T9 sequence (O14730 whole entry): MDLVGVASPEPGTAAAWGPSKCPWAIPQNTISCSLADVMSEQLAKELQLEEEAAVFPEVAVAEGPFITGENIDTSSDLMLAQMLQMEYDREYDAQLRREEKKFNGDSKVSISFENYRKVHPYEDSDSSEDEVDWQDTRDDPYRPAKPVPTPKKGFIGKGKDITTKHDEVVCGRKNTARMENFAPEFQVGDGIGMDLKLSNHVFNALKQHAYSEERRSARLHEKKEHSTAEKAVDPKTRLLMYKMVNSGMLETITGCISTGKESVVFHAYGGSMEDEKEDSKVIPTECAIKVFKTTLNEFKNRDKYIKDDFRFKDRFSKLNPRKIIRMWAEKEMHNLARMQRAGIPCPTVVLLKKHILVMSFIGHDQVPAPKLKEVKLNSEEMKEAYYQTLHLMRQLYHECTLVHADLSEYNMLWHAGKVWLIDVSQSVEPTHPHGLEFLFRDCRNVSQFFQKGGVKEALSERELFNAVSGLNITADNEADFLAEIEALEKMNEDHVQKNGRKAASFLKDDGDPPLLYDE

CDK4-cyclinD3 = target: T10, CDK4-cyclinD3 (Homo sapiens, UniProt P11802); test: KINOMEscan; assay type: binding; conditions: read-out: % Ctrl
T10 construct: purchased DiscoveRx KINOMEscan
T10 sequence (P11802 whole entry): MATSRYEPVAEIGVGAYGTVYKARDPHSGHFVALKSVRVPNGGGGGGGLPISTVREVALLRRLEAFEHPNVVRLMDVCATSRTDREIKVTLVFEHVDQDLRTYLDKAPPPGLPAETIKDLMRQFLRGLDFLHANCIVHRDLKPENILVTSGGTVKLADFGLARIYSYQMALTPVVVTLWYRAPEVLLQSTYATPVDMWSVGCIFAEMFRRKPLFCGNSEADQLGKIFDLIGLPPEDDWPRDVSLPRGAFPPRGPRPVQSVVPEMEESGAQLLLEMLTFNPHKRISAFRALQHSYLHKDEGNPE
T10 sequence (P30281 whole entry partner): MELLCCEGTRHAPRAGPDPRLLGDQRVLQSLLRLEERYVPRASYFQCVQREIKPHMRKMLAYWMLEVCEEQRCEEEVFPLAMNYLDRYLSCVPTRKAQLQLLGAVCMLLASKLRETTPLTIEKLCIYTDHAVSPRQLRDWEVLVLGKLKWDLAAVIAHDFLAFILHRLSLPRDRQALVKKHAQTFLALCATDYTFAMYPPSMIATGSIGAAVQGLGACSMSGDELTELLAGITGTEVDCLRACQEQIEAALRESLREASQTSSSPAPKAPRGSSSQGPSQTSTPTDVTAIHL

ROS1 = target: T11, ROS1 (Homo sapiens, UniProt P08922); test: KINOMEscan; assay type: binding; conditions: read-out: % Ctrl
T11 construct: purchased DiscoveRx KINOMEscan

CLK4 = target: T12, CLK4 (Homo sapiens, UniProt Q9HAZ1); test: KINOMEscan; assay type: binding; conditions: read-out: % Ctrl
T12 construct: purchased DiscoveRx KINOMEscan

CSF1R-autoi. = target: T13, CSF1R-autoi. (Homo sapiens, UniProt P07333); test: KINOMEscan; assay type: binding; conditions: read-out: % Ctrl
T13 construct: purchased DiscoveRx KINOMEscan
T13 sequence (P07333 539-972 limits assumed): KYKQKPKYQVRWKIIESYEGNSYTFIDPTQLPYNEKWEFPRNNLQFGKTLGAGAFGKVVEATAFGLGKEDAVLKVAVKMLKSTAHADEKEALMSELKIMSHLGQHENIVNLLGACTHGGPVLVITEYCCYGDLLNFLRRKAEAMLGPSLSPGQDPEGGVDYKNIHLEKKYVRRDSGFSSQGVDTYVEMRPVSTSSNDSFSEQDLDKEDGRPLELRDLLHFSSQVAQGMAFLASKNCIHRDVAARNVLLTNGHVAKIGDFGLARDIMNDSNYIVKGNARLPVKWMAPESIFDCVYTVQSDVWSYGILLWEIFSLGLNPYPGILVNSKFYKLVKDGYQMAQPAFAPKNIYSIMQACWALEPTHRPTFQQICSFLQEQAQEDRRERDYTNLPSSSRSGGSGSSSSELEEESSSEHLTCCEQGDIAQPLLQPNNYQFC

DMPK = target: T14, DMPK (Homo sapiens, UniProt Q09013); test: KINOMEscan; assay type: binding; conditions: read-out: % Ctrl
T14 construct: purchased DiscoveRx KINOMEscan
T14 sequence (Q09013 whole entry): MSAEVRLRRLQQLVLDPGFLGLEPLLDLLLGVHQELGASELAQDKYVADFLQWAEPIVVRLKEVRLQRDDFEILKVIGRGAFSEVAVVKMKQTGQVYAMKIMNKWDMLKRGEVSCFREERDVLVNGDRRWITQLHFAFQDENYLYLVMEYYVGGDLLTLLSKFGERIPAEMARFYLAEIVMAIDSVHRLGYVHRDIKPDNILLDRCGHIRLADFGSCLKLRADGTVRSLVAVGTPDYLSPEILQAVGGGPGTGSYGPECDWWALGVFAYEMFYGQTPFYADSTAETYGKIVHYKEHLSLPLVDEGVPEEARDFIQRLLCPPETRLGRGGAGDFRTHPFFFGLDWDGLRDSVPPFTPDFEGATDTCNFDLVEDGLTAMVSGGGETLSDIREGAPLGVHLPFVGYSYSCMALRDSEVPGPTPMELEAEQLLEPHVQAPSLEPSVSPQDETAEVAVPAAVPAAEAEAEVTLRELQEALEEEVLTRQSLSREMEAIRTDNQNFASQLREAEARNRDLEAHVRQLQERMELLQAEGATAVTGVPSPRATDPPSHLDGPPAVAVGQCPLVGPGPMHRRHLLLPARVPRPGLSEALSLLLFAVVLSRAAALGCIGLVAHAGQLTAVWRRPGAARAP

TEC = target: T15, TEC (Homo sapiens, UniProt P42680); test: KINOMEscan; assay type: binding; conditions: read-out: % Ctrl
T15 construct: purchased DiscoveRx KINOMEscan

YSK1 = target: T16, YSK1 (Homo sapiens, UniProt O00506); test: KINOMEscan; assay type: binding; conditions: read-out: % Ctrl
T16 construct: purchased DiscoveRx KINOMEscan
T16 sequence (O00506 whole entry): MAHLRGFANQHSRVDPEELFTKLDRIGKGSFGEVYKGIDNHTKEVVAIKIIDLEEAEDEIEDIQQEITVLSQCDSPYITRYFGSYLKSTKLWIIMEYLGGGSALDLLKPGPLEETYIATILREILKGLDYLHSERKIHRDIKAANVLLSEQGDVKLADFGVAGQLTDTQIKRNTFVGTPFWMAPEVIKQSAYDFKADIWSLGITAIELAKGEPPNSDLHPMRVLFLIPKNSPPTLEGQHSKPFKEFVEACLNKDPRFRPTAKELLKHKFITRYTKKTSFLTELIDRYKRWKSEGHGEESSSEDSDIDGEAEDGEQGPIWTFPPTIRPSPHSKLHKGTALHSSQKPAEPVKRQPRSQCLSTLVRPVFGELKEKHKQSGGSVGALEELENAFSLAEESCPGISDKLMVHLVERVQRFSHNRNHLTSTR

Compound | sphere-forming capacity (PDAC2 cultures) | sphere-forming capacity (PDAC4 cultures) | pEC50 (PDAC4 3D spheres) | remaining binding at 1 µM (FLT3) | remaining binding at 1 µM (PIK3CA) | remaining binding at 1 µM (FLT3(N841I)) | remaining binding at 1 µM (FLT3-autoi.) | remaining binding at 1 µM (PIK3CA(M1043I)) | remaining binding at 1 µM (PIK3CD) | remaining binding at 1 µM (PIK4CB) | remaining binding at 1 µM (IGF1R) | remaining binding at 1 µM (RIOK3) | remaining binding at 1 µM (CDK4-cyclinD3) | remaining binding at 1 µM (ROS1) | remaining binding at 1 µM (CLK4) | remaining binding at 1 µM (CSF1R-autoi.) | remaining binding at 1 µM (DMPK) | remaining binding at 1 µM (TEC) | remaining binding at 1 µM (YSK1)
COc1nc2ccc(NCC3CCN(C)CC3)nn2c1C(=O)Nc1cccc(OC(F)(F)F)c1 [Cpd 1] | decreased sphere forming capacity | decreased sphere forming capacity |  |  |  |  |  |  |  |  |  |  |  |  |  |  |  |  | 
CN1CCC(CNc2ccc3ncc(C(=O)Nc4cccc(OC(F)(F)F)c4)n3n2)CC1 [Cpd 2] |  |  | 5.14 | 92% | 100% | 60% | 82% | 90% | 85% | 99% | 100% | 78% | 100% | 91% | 100% | 88% | 88% | 96% | 95%
